Assay results taken from patent US20220362386A1, “LIQUID COMPOSITIONS COMPRISING A LEVODOPA AMINO ACID CONJUGATE AND USES THEREOF” (NeuroDerm, Ltd., priority 2019, published 2022).
Structures can show the parent of a compound that is named as a salt. Where two headings read alike, the source gives them in different places. Non-standard residues stand in square brackets, D forms with d. Residues, ends and D or L forms follow the SMILES beside them. Dopa = N[C@@H](Cc1ccc(O)c(O)c1)C(=O)O

Legend:
[1] = Human blood stability test; format: in vitro ADME; parameters: key: slope of % decrease of remaining compound over time; higher = faster metabolism; conditions: slope of the percentage decrease of remaining compound; substrate 10 μM; 0-60 minutes
Description: The stability of several LDAA compounds in human blood was tested. The substrate concentration was 10 μM and the incubation time 0, 5, 15, 30 and 60 minutes.
The results are described in Table 19, wherein the results describe the Ke, i.e., the slope of the percentage decrease of the remaining amount of the compound, measured at each of the above time points, such that the higher the Ke the faster the metabolism.

[2] = In-vitro metabolism of LDAA compounds using liver microsomes; format: in vitro ADME, human; conditions: for half-life at 0.1 μM / microsomal CLint at 0.1 μM: both sexes, human, pooled human liver microsomes; for half-life at 0.1 μM: pH 7.4, 1.0E−07M, 0.1 mg/mL microsomal protein; for microsomal CLint at 0.1 μM: pH 7.4, calculated from the half-life; for microsomal CLint at 0.1 μM / % Compound Remaining 1st / % Compound Remaining 2nd / % Compound Remaining Mean: 1.0E−07M
Description: The stability of test compounds in pooled human liver microsomes was determined on 96-well plates, wherein the test compounds were quantified at five time points by HPLC-MS/MS analysis. The assay matrix included mixed gender and a pool of 50 human liver microsomes, wherein the final microsomal protein concentration was 0.1 mg/mL. The test concentration was 0.1 μM with 0.01% DMSO, 0.25% acetonitrile and 0.25% methanol.
Each test compound was pre-incubated for five minutes with pooled liver microsomes in phosphate buffer (pH 7.4) in a 37° C. shaking water-bath. The reaction was initiated by adding a nicotinamide adenine dinucleotide phosphate (NADPH)-generating system and incubating for 0, 15, 30, 45, and 60 min. The reaction was stopped by transferring the incubation mixture to acetonitrile/methanol. Samples were then mixed and centrifuged, wherein the supernatants were used for HPLC-MS/MS analysis.
In each assay the four reference compounds propranolol, imipramine, verapamil and terfenadine were tested, wherein the propranolol and the imipramine are known to be relatively stable, while the verapamil and the terfenadine are known to be readily metabolized in human liver microsomes.
All samples were analyzed by HPLC-MS/MS using selected reaction monitoring. The HPLC system consisted of a binary LC pump with autosampler, a C-18 column, and a gradient. The conditions were adjusted when necessary.
Peak areas corresponding to the test compound were recorded. The amount of each compound remaining was calculated by comparing the peak area at each time point to time zero. The half-life is calculated from the slope of the initial linear range of the logarithmic curve of compound remaining (%) vs. time, assuming first order kinetics. In addition, the intrinsic clearance (Clint) was calculated from the half-life using the following equation:
Clint(μL/min/mg protein)=0.693/(t1/2×protein concentration)
The results of the in-vitro human liver microsome metabolism tests of various LDAA compounds (10^−7M), in their TFA salt forms, are provided in FIG. 1 and in Table 17, which presents the % of the compound remaining at times 0, 15, 30, 45 and 60 minutes, two half-life measurements and the Clint, calculated as detailed above.

human plasma = assay: Protein binding, solid phase extraction (SPE) method; format: in vitro ADME; conditions: 1.0E−05M; SPE sample preparation
Description: (§1) A solid phase extraction (SPE) method was used to prepare samples for several compounds in the plasma protein binding assay. The following SPE protocols were followed:
(§2) Sorbent: Waters Oasis MCX 96—well MicroElution Plate—Cat #186001830BA Sample: 200 μL of plasma spiked at 10 μM with test compound. Sample was diluted 1:1 with 4% phosphoric acid in water and mixed for 15 minutes 1) Place Oasis plate on vacuum manifold and set vacuum to 5″ Hg; 2) Condition with 200 μL methanol; 3) Equilibrate with 200 μL water; 4) Load dilute plasma sample; 5) Wash with 200 μL 2% formic acid in water; 6) Wash with 400 μL methanol; and 7) Elute with 100 μL 5% NH4OH in methanol.
as §2, with “MAX 96-well” for “MCX 96—well”, “plate—Cat #186001829” for “Plate—Cat #186001830BA”, “5% NH4OH” for “2% formic acid”, “2% formic acid” for “5% NH4OH”

[3] = as above; format: in vitro ADME, human; conditions: human, human plasma, 1.0E−05M, SPE sample preparation
Description: as §1, §2
as §2, with “MAX 96-well” for “MCX 96—well”, “plate—Cat #186001829” for “Plate—Cat #186001830BA”, “5% NH4OH” for “2% formic acid”, “2% formic acid” for “5% NH4OH”

[4] = Comparative formulation tests, physical stability (Tables 32a-c, 33a-c); format: physicochemical; conditions: LDAA TFA salt/CD formulation; for Physical stability (visual), Day 1: Day 1, room temperature; for Physical stability (visual), Day 2: Day 2, room temperature; for Physical stability (visual), Day 5: Day 5, room temperature after two days at 2-8° C.; for Physical stability (visual), Day 6: Day 6, room temperature after two days at 2-8° C.; for Physical stability (visual), Day 40: Day 40, returned to 2-8° C.
Description: It is noted that the formulations were similarly to those above; however, CD was added, and further, the amounts of the antioxidants, i.e., ascorbic acid and NAC, were added at three different concentrations, as detailed in Tables 32a-c below. Further, an additional amount of arginine was added to the solution in order to adjust the pH to a physiologically acceptable pH.
The formulations prepared as detailed in Tables 32a, 32b and 32c were (a) held at room temperature for two days; (b) transferred to a refrigerator (2-8° C.) for two days; and (c) transferred from the refrigerator to room temperature for an additional two days, during which they were assessed again for precipitants. The formulations were then returned to the refrigerator (2-8° C.) and assessed for precipitants on day 40. The physical stability of each formulation was assessed on the first two days and again on the last two days. The physical stability of the formulations was assessed visually. A clear solution was considered to be stable, while a solution comprising precipitants was considered to be physically unstable. The stability results of the formulations of Tables 32a, 32b and 32c are detailed in Tables 33a, 33b and 33c, respectively.

[5] = read-out: Half-Life (minute) 1st
[6] = read-out: Half-Life (minute) 2nd
[7] = read-out: Half-Life (minute) Mean
[8] = NB 144-15, ~0.1% Asc + ~0.1% NAC
[9] = NB 144-18, ~0.4% Asc + ~0.4% NAC
[10] = NB 144-20, ~0.8% Asc + ~0.8% NAC

SMILES	half-life at 0.1 μM [2, 5] [min]	half-life at 0.1 μM [2, 6] [min]	half-life at 0.1 μM [2, 7] [min]	microsomal CLint at 0.1 μM [2] [µL/min/mg]	% Compound Remaining 1st ([2]; incubation time 0 minutes) [%]	% Compound Remaining 2nd ([2]; incubation time 0 minutes) [%]	% Compound Remaining Mean ([2]; incubation time 0 minutes) [%]	% Compound Remaining 1st ([2]; incubation time 15 minutes) [%]	% Compound Remaining 2nd ([2]; incubation time 15 minutes)	% Compound Remaining Mean ([2]; incubation time 15 minutes) [%]	% Compound Remaining 1st ([2]; incubation time 30 minutes) [%]	% Compound Remaining 2nd ([2]; incubation time 30 minutes)	% Compound Remaining Mean ([2]; incubation time 30 minutes) [%]	% Compound Remaining 1st ([2]; incubation time 45 minutes) [%]	% Compound Remaining 2nd ([2]; incubation time 45 minutes) [%]	% Compound Remaining Mean ([2]; incubation time 45 minutes) [%]	% Compound Remaining 1st ([2]; incubation time 60 minutes) [%]	% Compound Remaining 2nd ([2]; incubation time 60 minutes) [%]	% Compound Remaining Mean ([2]; incubation time 60 minutes) [%]	also measured
NC(=O)C[C@H](NC(=O)[C@@H](N)Cc1ccc(O)c(O)c1)C(=O)O [LD-Asn TFA salt, Levodopa Asparagine TFA Salt] (H-[Dopa]-Asn-OH)	74.4	77.3	> 60	< 116	100	100	100	92.8	96.4%	95	79.9	88.6%	84	66.1	59.7	63	58.9	64.9	62	Ke [1]: 0.0038
N[C@@H](Cc1ccc(O)c(O)c1)C(=O)O [LD (control), L-3,4-dihydroxyphenylalanine, reference compound]	116	131	> 60	< 116	100	100	100	102.5	97.8%	100	93.2	89.3%	91	80.1	78	79	72.3	75.2	74	% Protein Bound 1st (human plasma): 30.4%; % Protein Bound 2nd (human plasma): 20.2%; % Protein Bound Mean (human plasma): 25%; recovery at 10 μM ([3]; read-out: % Recovery 1st): 59%; recovery at 10 μM ([3]; read-out: % Recovery 2nd): 78%; recovery at 10 μM ([3]; read-out: % Recovery Mean): 68%
NC(=O)CC[C@H](NC(=O)[C@@H](N)Cc1ccc(O)c(O)c1)C(=O)O [LD-Gln TFA salt, Levodopa Glutamine TFA Salt] (H-[Dopa]-Gln-OH)	155	158	> 60	< 116	100	100	100	103.4	{121.2%	103	68.2	{139.0%	68	81.8	94.1	88	80.4	72.8	77	–
N[C@@H](Cc1ccc(O)c(O)c1)C(=O)N[C@@H](Cc1c[nH]c2ccccc12)C(=O)O [LD-Trp TFA salt, Levodopa Tryptophan] (H-[Dopa]-Trp-OH)	64	61.4	> 60	< 116	100	100	100	108.6	{96.6} %	109	115.2	92.2%	104	70.5	63.1	67	55.1	51.6	53	Physical stability (visual), Day 1 [4, 8]: Stable; Physical stability (visual), Day 2 [4, 8]: Stable; Physical stability (visual), Day 5 [4, 8]: Stable; Physical stability (visual), Day 6 [4, 8]: Stable; Physical stability (visual), Day 40 [4, 8]: Stable; Physical stability (visual), Day 1 [4, 9]: Stable; Physical stability (visual), Day 2 [4, 9]: Stable; Physical stability (visual), Day 5 [4, 9]: Stable; Physical stability (visual), Day 6 [4, 9]: Stable; Physical stability (visual), Day 40 [4, 9]: Stable; Physical stability (visual), Day 1 [4, 10]: Stable; Physical stability (visual), Day 2 [4, 10]: Stable; Physical stability (visual), Day 5 [4, 10]: Stable; Physical stability (visual), Day 6 [4, 10]: Stable; Physical stability (visual), Day 40 [4, 10]: Stable
